Measured values from ChEMBL document CHEMBL6109153, “Development of Membrane-Targeting Osthole Derivatives Containing Pyridinium Quaternary Ammonium Moieties with Potent Anti-Methicillin-Resistant Staphylococcus aureus Properties” (J Med Chem, 2025).
Activity calls are given as the source filed them. No cut-off for these calls is given here.

How the values were obtained:
Staphylococcus aureus [1] = experiment: Antibacterial activity against methicillin-resistant Staphylococcus aureus M11 infected in BALB/c mouse model of Sepsis assessed as vacuolar degeneration in liver cells at 10 mg/kg, ip measured after 48 hrs; type: functional, organism-based
Staphylococcus aureus [2] = experiment: Induction of bacterial eradication in methicillin-resistant Staphylococcus aureus M11 at 8 times MIC incubated for 8 hrs by time-kill assay; type: functional, organism-based
Staphylococcus aureus [3] = experiment: Antibacterial activity against methicillin-resistant Staphylococcus aureus M11 infected in BALB/c mouse model of Sepsis assessed as reduction in swelling in inner epidermal abscesses at 4 mg/kg measured after 24 hrs; type: functional, organism-based
Staphylococcus aureus [4] = experiment: Antibacterial activity against methicillin-resistant Staphylococcus aureus M11 infected in BALB/c mouse model of Sepsis assessed as reduction in inflammatory cell infiltration in skin tissues at 4 to 8 mg/kg measured after 24 hrs by H and E staining based analysis; type: functional, organism-based; details: dose 4-8 mg/kg
Staphylococcus aureus [5] = experiment: Antibacterial activity against methicillin-resistant Staphylococcus aureus M11 infected in BALB/c mouse model of Sepsis assessed as reduction in hepatic congestion at 10 mg/kg, ip measured after 48 hrs; type: functional, organism-based
[6] = Toxicity in BALB/c mouse model of Sepsis infected with methicillin-resistant Staphylococcus aureus M11 assessed as survival rate at 5 mg/kg, ip measured after 7 days; type: organism-based; details: in vivo, 168 h, time 7 day
Staphylococcus aureus [7] = experiment: Antibacterial activity against methicillin-resistant Staphylococcus aureus M11 infected in BALB/c mouse model of Sepsis assessed as reduction in bacterial load in spleen at 20 mg/kg, ip measured after 48 hrs; type: functional
Staphylococcus aureus [8] = experiment: Antibacterial activity against methicillin-resistant Staphylococcus aureus M11 infected in BALB/c mouse model of Sepsis assessed as reduction in bacterial load in liver at 20 mg/kg, ip measured after 48 hrs; type: functional
Staphylococcus aureus [9] = experiment: Antibacterial activity against methicillin-resistant Staphylococcus aureus M11 infected in BALB/c mouse model of Sepsis assessed as reduction in bacterial count in skin tissues at 4 mg/kg measured after 24 hrs relative to control; type: functional; set-up: scale not given: the % may be the effect or the level left
Staphylococcus aureus [10] = experiment: Antibacterial activity against methicillin-resistant Staphylococcus aureus M11 infected in BALB/c mouse model of Sepsis assessed as reduction in bacterial count in skin tissues at 8 mg/kg measured after 24 hrs relative to control; type: functional; set-up: scale not given: the % may be the effect or the level left
Staphylococcus aureus [11] = experiment: Antibacterial activity against methicillin-resistant Staphylococcus aureus M11 infected in BALB/c mouse model of Sepsis assessed as reduction in bacterial load in kidney at 20 mg/kg, ip measured after 48 hrs; type: functional
[12] = Toxicity in BALB/c mouse model of Sepsis infected with methicillin-resistant Staphylococcus aureus M11 assessed as survival rate at 15 mg/kg, ip measured after 7 days; type: organism-based; details: in vivo, 168 h, time 7 day
Staphylococcus aureus [13] = experiment: Antibacterial activity against methicillin-resistant Staphylococcus aureus M11 infected in BALB/c mouse model of Sepsis assessed as reduction in abscess size on back at 4 mg/kg measured after 24 hrs; type: functional, organism-based
Staphylococcus aureus [14] = experiment: Antibacterial activity against methicillin-resistant Staphylococcus aureus M11 infected in BALB/c mouse model of Sepsis assessed as reduction in bacterial load in skin tissues at 4 mg/kg measured after 24 hrs; type: functional
Staphylococcus aureus [15] = experiment: Antibacterial activity against methicillin-resistant Staphylococcus aureus M11 infected in BALB/c mouse model of Sepsis assessed as reduction in hepatic sinusoidal dilation at 10 mg/kg, ip measured after 48 hrs; type: functional, organism-based
[16] = Toxicity in BALB/c mouse model of Sepsis infected with methicillin-resistant Staphylococcus aureus M11 assessed as survival rate at 10 mg/kg, ip measured after 7 days; type: organism-based; details: in vivo, 168 h, time 7 day
Staphylococcus aureus [17] = experiment: Antibacterial activity against methicillin-resistant Staphylococcus aureus M11 infected in BALB/c mouse model of Sepsis assessed as reduction in bacterial load in skin tissues at 8 mg/kg measured after 24 hrs; type: functional
Staphylococcus aureus [18] = experiment: Antibacterial activity against methicillin-resistant Staphylococcus aureus M11 infected in BALB/c mouse model of Sepsis assessed as reduction in redness in inner epidermal abscesses at 4 mg/kg measured after 24 hrs; type: functional, organism-based

CN[C@H](CC(C)C)C(=O)N[C@H]1C(=O)N[C@@H](CC(N)=O)C(=O)N[C@H]2C(=O)N[C@H]3C(=O)N[C@H](C(=O)N[C@H](C(=O)O)c4cc(O)cc(O)c4-c4cc3ccc4O)[C@H](O)c3ccc(c(Cl)c3)Oc3cc2cc(c3O[C@@H]2O[C@H](CO)[C@@H](O)[C@H](O)[C@H]2O[C@H]2C[C@](C)(N)[C@H](O)[C@H](C)O2)Oc2ccc(cc2Cl)[C@H]1O [VANCOMYCIN]
Activity (Staphylococcus aureus [1]): Active
Activity (Staphylococcus aureus [2]): Not active; Compound Inhibited Bacterial Growth But Still Showed Surviving Bacteria Within The Detection Range After 8 H, Indicating Incomplete Bacterial Eradication
Activity (Staphylococcus aureus [3]): Active
Activity (Staphylococcus aureus [4]): Active
Activity (Staphylococcus aureus [5]): inactive
Survival [6]: 33.3%
Activity (Staphylococcus aureus [7]): 3.88 log10CFU/ml
Activity (Staphylococcus aureus [8]): 3.54 log10CFU/ml
Activity (Staphylococcus aureus [9]): 97.24%
Activity (Staphylococcus aureus [10]): 99.989%
Activity (Staphylococcus aureus [11]): 3.92 log10CFU/ml
Survival [12]: 100%
Activity (Staphylococcus aureus [13]): Active
Activity (Staphylococcus aureus [14]): 1.578 log10CFU/g
Activity (Staphylococcus aureus [15]): inactive
Survival [16]: 77.8%
Activity (Staphylococcus aureus [17]): 3.96 log10CFU/g
Activity (Staphylococcus aureus [18]): Active
